Data published in patent US10544156B2, “Hemi-synthetic trilobine analogs for use as a drug” (PIERRE FABRE MEDICAMENT, priority 2015, dated 2020).

Legend:
[1] = target: T1, His-DNMT1 (182 kDa, human) (Homo sapiens, UniProt P26358); test: hDNMT1 assay ([methyl-3H] SAM Flashplate); type: biochemical; conditions: for inhibition at 10 µM: read-out: hDNMT 1 inhibition, Inhibition (%) 10 μM; for inhibition at 32 µM: read-out: hDNMT 1 inhibition, Inhibition (%) 32 μM
T1 construct: His; made in house
Description: His-DNMT1 (182 kDa, human) was cloned, expressed and purified as described (Halby et al. Chem Bio Chem 2012, 13, 157-165). The reaction was performed in a 10 μL total reaction volume in low volume NBS™ 384-well microplates (Corning), containing the tested compound (up to 1% DMSO), 1 μM of a SAM/[methyl-^3H] SAM (3TBq/mmol, PerkinElmer) mix in a ratio of 3-to-1 (isotopic dilution 1*:3), 0.3 μM of biotinylated hemimethylated DNA duplex (5′-GATmCGCmCGATGmCGmCGAATmCGmCGATmCGATGmCGAT-3′ and BIOT-5′-[…]-3′), and 90 nM of DNMT1 in methylation buffer (20 mM HEPES pH 7.2, 1 mM EDTA, 50 mM KCl, 25 μg/mL BSA). The reaction was incubated at 37° C. for 2 hours. 8 μL are then transferred into a streptavidin 96-well scintillant coated Flashplate™ (PerkinElmer) containing 190 μL of 20 μM SAH in 50 mM Tris-HCl pH 7.4. The Flashplate™ was agitated at room temperature for 1 hour and read in 200 μL of 50 mM Tris-HCl pH 7.4 on TopCount NXT (PerkinElmer). The percentage of inhibition is reported. The formula used to calculate the percentage of inhibition is [(X−Y)/X]×100, where X is the signal determined in the absence of the inhibitor and Y is the signal obtained in the presence of the inhibitor.

KG-1 (leukemia) = test: Anti-proliferative activity (ATPLite); type: cell-based; conditions: Homo sapiens; daily treatment, cell viability by ATPLite; read-out: Antiproliferative activity: IC50 (μM) KG-1 (leukemia)
Description: (§1) To measure the anti-proliferative properties of tested molecules, 2×10^4 cells are seeded at day 0 in a 96 wells plate. The compounds to be tested, stored at −20° C. as 10^−2 M stock solution in 100% DMSO, are freshly diluted on day 1 in the cell medium, before adding a dose range of 3.2 nM to 10 μM to the cells. Cells are treated everyday and cell viability assessed after 3 days or 7 days of treatment. The cell viability is assessed using the ATPLite kit from Perkin (ATPlite 1 Step Luminescence Assay System, ref 3016739), following the provider instructions. The raw data are analyzed with GraphPad Prism software (v4.03) to generate IC50 values corresponding to the compound concentrations giving 50% reduction in cell viability. The values presented are the mean results of at least two independent experiments. The standard errors are indicated.

WM266-4 (melanoma) = test: Anti-proliferative activity (ATPLite); type: cell-based; conditions: Homo sapiens, WM 266-4; two treatments instead of three; cell viability by ATPLite; read-out: Antiproliferative activity: IC50 (μM) WM266-4 (melanoma)
Description: as §1

[2] = tested on: HCT116 (colorectal cancer); test: Anti-proliferative activity (ATPLite); type: cell-based; conditions: Homo sapiens, HCT-116; daily treatment, cell viability by ATPLite; read-out: Antiproliferative activity: IC50 (μM) HCT116 (colorectal cancer)
Description: as §1

[3] = tested on: P16 promoter in colon cancer cells HCT116; test: C5 DNA methylation analysis of CDKN2A (P16) promoter by COBRA; type: cell-based, human; conditions: at 0.1 μM
Description: Cancer cell lines (colon HCT116 or leukaemia KG1) were treated with the compounds as indicated in the Data Tables and then analysed as following.
DNA was isolated from cultured cells using the DNeasy Blood and Tissue Kit according to the manufacturer's specifications (Qiagen). DNA bisulphite conversion was performed on 2 μg of DNA using the EZ DNA Methylation-Gold Kit according to the manufacturer's specifications (Zymo Research) and bisulfited DNA was eluted with 10 μL of water.
Two different techniques were used to analyse the DNA methylation profile after bisulfite conversion of genomic DNA: (A) cloning and sequencing or (B) COBRA. The primers for each promoter are specified in Table 4.
This technique is a variation of bisulfite sequencing and combines bisulfite conversion based polymerase chain reaction with restriction digestion. DNA methylation levels are easily and quickly measured at fewer CpG sites than bisulfite-cloning-sequencing.
DNA amplification was set up with 100 ng eluted bisulfited DNA in 50 μL PCR reaction containing 1×PCR buffer, 2.5 mM MgCl2, 0.3 mM dNTPs, 400 nM each primer and 1.25 units EpiTaq HS (Takara) on C1000 Touch™ thermal cycler by 98° C. for 10 sec, 55° C. for 30 sec, 72° C. for 30 sec×40 cycles. 20 μL of PCR amplicons were digested in 30 μL by 2 units of BsiEI at 60° C. for 90 min. DNA fragments were migrated by 2% agarose gel electrophoresis and each band was quantified by Image Lab Software v2.0 (BioRad Laboratories).

[4] = tested on: luciferase reporter gene under control of methylated CMV promoter in KG-1 cells; test: CMV-luc reexpression in KG-1 cells; type: cell-based, human; conditions: for Induction Fold (IF) of luciferase gene reporter in KG-1 CMV-Luc: 24 h, vs DMSO; for IF-24 h, KG1 CMV-Luc model: at 5 μM, 24 h (Table 5)
Description: KG-1 cells were stably transfected with the firefly luciferase reporter gene (luc+ from pGL3; Promega) under the control of the cytomegalovirus (CMV) promoter (from pEGFP-N1; Clontech Laboratories Inc.) partially methylated (50%). 20,000 cells per well were seeded in a 96-well plate. After 24 h incubation in the presence of the test compound or solvant (DMSO), the induction of the promoter was measured by quantification of the luciferase signal with the Brite-lite assay system (PerkinElmer) according to the manufacturer's protocol. The luminescence was measured on an EnVision multilabel plate reader (PerkinElmer), and the data are expressed as the fold induction as compared with the DMSO control. The mean of three experiments and the standard error is reported.

T1 sequence (P26358 whole entry): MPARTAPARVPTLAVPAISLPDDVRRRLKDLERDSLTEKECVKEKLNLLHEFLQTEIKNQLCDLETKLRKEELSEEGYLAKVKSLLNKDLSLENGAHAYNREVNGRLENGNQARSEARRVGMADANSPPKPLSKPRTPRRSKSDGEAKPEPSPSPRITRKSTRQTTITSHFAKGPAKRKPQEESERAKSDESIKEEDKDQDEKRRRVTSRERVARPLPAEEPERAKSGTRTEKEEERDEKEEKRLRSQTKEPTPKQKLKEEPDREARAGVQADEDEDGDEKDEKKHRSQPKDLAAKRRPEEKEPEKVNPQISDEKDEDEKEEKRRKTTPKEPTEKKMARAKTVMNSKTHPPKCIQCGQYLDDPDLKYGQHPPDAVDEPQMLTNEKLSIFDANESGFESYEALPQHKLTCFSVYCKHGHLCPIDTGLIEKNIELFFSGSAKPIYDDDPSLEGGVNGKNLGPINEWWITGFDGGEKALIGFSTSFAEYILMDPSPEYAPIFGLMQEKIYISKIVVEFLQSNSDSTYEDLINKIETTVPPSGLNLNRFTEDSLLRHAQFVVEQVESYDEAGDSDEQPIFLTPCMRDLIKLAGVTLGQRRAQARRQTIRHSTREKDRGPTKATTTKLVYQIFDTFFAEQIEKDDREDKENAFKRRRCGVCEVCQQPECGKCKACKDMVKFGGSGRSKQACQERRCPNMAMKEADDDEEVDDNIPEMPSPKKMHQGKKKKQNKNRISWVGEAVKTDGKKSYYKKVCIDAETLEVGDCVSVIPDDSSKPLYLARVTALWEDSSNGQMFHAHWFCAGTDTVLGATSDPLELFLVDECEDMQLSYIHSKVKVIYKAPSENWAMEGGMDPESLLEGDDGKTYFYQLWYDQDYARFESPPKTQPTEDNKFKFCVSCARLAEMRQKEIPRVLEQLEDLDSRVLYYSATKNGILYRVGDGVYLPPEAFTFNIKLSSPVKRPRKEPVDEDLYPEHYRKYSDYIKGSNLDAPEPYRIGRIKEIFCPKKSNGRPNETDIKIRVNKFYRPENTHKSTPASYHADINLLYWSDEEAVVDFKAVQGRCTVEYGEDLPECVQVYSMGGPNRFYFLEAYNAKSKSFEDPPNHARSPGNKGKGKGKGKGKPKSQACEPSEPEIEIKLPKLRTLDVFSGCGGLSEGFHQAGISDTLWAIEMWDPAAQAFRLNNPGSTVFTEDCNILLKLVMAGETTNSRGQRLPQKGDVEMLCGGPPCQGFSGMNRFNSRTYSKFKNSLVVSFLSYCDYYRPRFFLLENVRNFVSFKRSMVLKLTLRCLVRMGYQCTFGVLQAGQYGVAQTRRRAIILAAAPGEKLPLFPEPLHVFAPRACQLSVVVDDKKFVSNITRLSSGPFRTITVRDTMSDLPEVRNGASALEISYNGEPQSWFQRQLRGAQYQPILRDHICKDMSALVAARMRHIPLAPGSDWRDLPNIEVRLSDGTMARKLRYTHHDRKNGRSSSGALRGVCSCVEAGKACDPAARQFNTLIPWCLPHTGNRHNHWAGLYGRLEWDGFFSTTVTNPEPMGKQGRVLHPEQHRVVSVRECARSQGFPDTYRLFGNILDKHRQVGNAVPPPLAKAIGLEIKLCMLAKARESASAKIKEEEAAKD

Row | Compound | EC50 ([1]; read-out: EC50 (μM), hDNMT 1 inhibition) [µM] | inhibition at 10 µM [1] [%] | inhibition at 32 µM [1] [%] | IC50 (KG-1 (leukemia)) [µM] | IC50 (WM266-4 (melanoma)) [µM] | IC50 [2] [µM] | Demethylation (COBRA) P16/HCT116 ([3]; after 7 days) | Induction Fold (IF) of luciferase gene reporter in KG-1 CMV-Luc ([4]; 0.1 μM) | Induction Fold (IF) of luciferase gene reporter in KG-1 CMV-Luc ([4]; 0.32 μM) | Induction Fold (IF) of luciferase gene reporter in KG-1 CMV-Luc ([4]; 1 μM) | Induction Fold (IF) of luciferase gene reporter in KG-1 CMV-Luc ([4]; 3.2 μM) | Induction Fold (IF) of luciferase gene reporter in KG-1 CMV-Luc ([4]; 5 μM) | Induction Fold (IF) of luciferase gene reporter in KG-1 CMV-Luc ([4]; 10 μM) | IF-24 h, KG1 CMV-Luc model [4] | Demethylation (COBRA) P16/HCT116 ([3]; after 3 days) [% after 3 days] | Demethylation (COBRA) P16/HCT116 ([3]; after 21 days) [% after 21 days]
1 | CCN(CC)CCCNC(=S)N1CCc2cc3c4cc2[C@@H]1Cc1ccc(OC)c(c1)Oc1ccc(cc1)C[C@H]1c2c(cc(OC)c(c2O4)O3)CCN1C(=S)NCCCN(CC)CC [Product 41] | 11 ± 0.7 | 60 | 99 | 5.3 ± 0.4 | 4.4 ± 1.5 | 0.96 ± 0.02 | 0% after 7 days (at 0.1 μM) | 1.1 ± 0.1 | 1.1 ± 0.1 | 1.3 ± 0.1 | 2.0 ± 0.3 | 2.8 ± 0.2 | 3.1 ± 0.4 | 3.3 ± 0.1 |  | 
2 | CNC(=O)N1CCc2cc(OC)c3c4c2[C@@H]1Cc1ccc(cc1)Oc1cc(ccc1OC)C[C@H]1c2cc(c(cc2CCN1C)O3)O4 [Product 44] |  | 0 | 15 | 4.2 ± 0.05 | 12 ± 3 | 1.88 ± 0.03 | 0% after 7 days (at 0.1 μM) | 1.1 ± 0.1 | 1.1 ± 0.1 | 1.3 ± 0.1 | 2.0 ± 0.1 | 2.5 ± 0.9 | 9.0 ± 1.3 | 5.9 ± 0.2 |  | 
3 | COc1ccc2cc1Oc1ccc(cc1)C[C@@H]1NCCc3cc(OC)c4c(c31)Oc1cc3c(cc1O4)CCN(C)[C@H]3C2 [Trilobine (1), trilobine] |  | 4 |  | 2.1 ± 0.8 | 3.2 ± 0.8 | 1.19 ± 0.02 | −52% after 7 days | 1.1 ± 0.1 | 1.9 ± 1.2 | 2.6 ± 1.4 | 3.5 ± 1.1 | 6.4 ± 0.1 |  | 5.8 ± 0.6 | −37 | −53
